In patent publication US10723728B2, “Prodrugs of Nh-acidic compounds” (ALKERMES PHARMA IRELAND LIMITED, priority 2009, dated 2020):

Assays:
[1] = Pharmacokinetic evaluation of prodrugs in rats following intramuscular injection; type: in vivo, Male Sprague-Dawley rats; conditions: rat, IM injection
Method: Male Sprague-Dawley rats (Charles River Laboratories, Wilmington, Mass.) were obtained. Approximately 24 rats were used in each study. Rats were approximately 350-375 g at time of arrival. Rats were housed 2 per cage with ad libitum chow and water. Environmental conditions in the housing room: 64-67 OF, 30% to 70% relative humidity, and 12:12-h light:dark cycle. All experiments were approved by the institutional animal care and use committee.
(§1) Rats were dosed IM by means of a 25 gauge, ⅝ inch needle with 1 cc syringe 0.3 mL suspension was withdrawn from the vial containing the test compound (see Table E). The […] was injected in the muscles of the hind limb after anesthesia with isoflourane. Blood samples were collected via a lateral tail vein after brief anesthesia with Isoflurane. A 27½-G needle and 1 cc syringe without an anticoagulant was used for the blood collection. Approximately 350 μL of whole blood was collected at each sampling time-point of 6 hours, 24 hours and 2, 5, 7, 9, 12, 14, 21, 28, 35 days after administration. Once collected, whole blood was immediately transferred to tubes containing K2 EDTA, inverted 10-15 times and immediately placed on ice. The tubes were centrifuged for 2 minutes at >14,000 g's (11500 RPMs using Eppendorf Centrifuge 5417C, F45-30-11 rotor) at room temperature to separate plasma. Plasma samples were transferred to labeled plain tubes (MICROTAINER®) and stored frozen at <−70° C.
(§2) Drug concentrations in plasma samples were analyzed by liquid chromatography-mass spectroscopy using appropriate parameters for each compound. Half-life, volume of distribution, clearance, maximal concentration, and AUC were calculated by using WinNonlin Version 5.2_software (Pharsight, St. Louis, Mo.).

[2] = test system: D-Amphetamine-induced locomotion; assay: Pharmacodynamic study in amphetamine-induced locomotion model; conditions: D-AMPH 1.5 mg/kg IP
[3] = Pharmacokinetic study for pioglitazone, Compounds 1002 and 1008; type: in vivo, rats; conditions: rat, intramuscular; pioglitazone prodrug, crystalline material in 2% CMC, 0.2% Tween 20, PBS buffer pH 6.7; dose 67 mg/kg in table
Method: as §1, §2
PK profile of compounds 1002 and 1008 was compared to pioglitazone using a similar model as described above. 20 mg of pioglitazone or 20 mg equivilant of pioglitazone prodrug was administered intramuscularly.

[4] = crystalline suspension or oil emulsion
[5] = PO, at the higher dose of 20 mg
[6] = solution in ethyl oleate, dose (mg/kg)
[7] = oral oil solution (PO), 0.66, 10 and 20 mg/rat

SMILES | AUC0-14 [1, 4] [ng·days/mL] | AUC0-T [1, 4] [ng·days/mL] | other results
CC(C)OC(=O)OCN1C(=O)CCc2ccc(OCCCCN3CCN(c4cccc(Cl)c4Cl)CC3)cc21 [Compound 48, (7-(4-(4-(2,3-dichlorophenyl)piperazin-1-yl)butoxy)-2-oxo-3,4-dihydroquinolin-1(2H)-yl)methyl isopropyl carbonate] | 2238 | 2264.6 | –
CCCCCCCCCCCC(=O)OCN1C(=O)CCc2ccc(OCCCCN3CCN(c4cccc(Cl)c4Cl)CC3)cc21 [Compound 7, (7-(4-(4-(2,3-dichlorophenyl)piperazin-1-yl)butoxy)-2-oxo-3,4-dihydroquinolin-1(2H)-yl)methyl dodecanoate] | 512.0 | 1169.5 | inhibition of increase in total distance traveled caused by D-AMPH [2, 5]: did appear to significantly inhibit increases in distance traveled caused by D-AMPH
CCCCCCOC(=O)OCN1C(=O)CCc2ccc(OCCCCN3CCN(c4cccc(Cl)c4Cl)CC3)cc21 [Compound 81, (7-(4-(4-(2,3-dichlorophenyl)piperazin-1-yl)butoxy)-2-oxo-3,4-dihydroquinolin-1(2H)-yl)methyl hexyl carbonate] | – | – | AUC0-14 [1, 6]: 584 ng·days/mL
CCCCCCCC(=O)OCN1C(=O)CCc2ccc(OCCCCN3CCN(c4cccc(Cl)c4Cl)CC3)cc21 [Compound 5, (7-(4-(4-(2,3-dichlorophenyl)piperazin-1-yl)butoxy)-2-oxo-3,4-dihydroquinolin-1(2H)-yl)methyl octanoate] | 1728.6 | 1742 | –
O=C(OCN1C(=O)CCc2ccc(OCCCCN3CCN(c4cccc(Cl)c4Cl)CC3)cc21)N1CCOCC1 [Compound 49, (7-(4-(4-(2,3-dichlorophenyl)piperazin-1-yl)butoxy)-2-oxo-3,4-dihydroquinolin-1(2H)-yl)methyl morpholine-4-carboxylate] | 152 | 199.7 | –
CCCCCCCCCCCCCCCC(=O)OCN1C(=O)SC(Cc2ccc(OCCc3ccc(CC)cn3)cc2)C1=O (stereo not shown) [Compound 1008, (5-(4-(2-(5-ethylpyridin-2-yl)ethoxy)benzyl)-2,4-dioxothiazolidin-3-yl)methyl palmitoate] | – | – | AUC0-14 [3]: 5000 ng·days/mL; AUC0-T [3]: 6763 ng·days/mL
CCCCCCCCCCCCCCCC(=O)OCN1C(=O)CCc2ccc(OCCCCN3CCN(c4cccc(Cl)c4Cl)CC3)cc21 [Compound 10, (7-(4-(4-(2,3-dichlorophenyl)piperazin-1-yl)butoxy)-2-oxo-3,4-dihydroquinolin-1(2H)-yl)methyl palmitate] | 302 | 786.6 | –
CC(=O)OCN1C(=O)CCc2ccc(OCCCCN3CCN(c4cccc(Cl)c4Cl)CC3)cc21 [Compound 1, (7-(4-(4-(2,3-dichlorophenyl)piperazin-1-yl)butoxy)-2-oxo-3,4-dihydroquinolin-1(2H)-yl)methyl acetate] | 1673 | 1938 | –
CCCCCC(=O)OCN1C(=O)CCc2ccc(OCCCCN3CCN(c4cccc(Cl)c4Cl)CC3)cc21 [Compound 4, (7-(4-(4-(2,3-dichlorophenyl)piperazin-1-yl)butoxy)-2-oxo-3,4-dihydroquinolin-1(2H)-yl)methyl hexanoate] | 1455.4 | 1678 | dose dependence of inhibition of distance travelled [2, 7]: did not appear to be dose dependent; inhibition of increase in total distance traveled caused by D-AMPH [2, 7]: significantly inhibited the increases in distance traveled caused by D-AMPH
CCCC(=O)OCN1C(=O)CCc2ccc(OCCCCN3CCN(c4cccc(Cl)c4Cl)CC3)cc21 [Compound 2, (7-(4-(4-(2,3-dichlorophenyl)piperazin-1-yl)butoxy)-2-oxo-3,4-dihydroquinolin-1(2H)-yl)methyl butyrate] | 1016.9 | 1139.8 | –
CC(C)C(=O)OCN1C(=O)CCc2ccc(OCCCCN3CCN(c4cccc(Cl)c4Cl)CC3)cc21 [Compound 32, (7-(4-(4-(2,3-dichlorophenyl)piperazin-1-yl)butoxy)-2-oxo-3,4-dihydroquinolin-1(2H)-yl)methyl isobutyrate] | 1334.4 | 1486 | –
CCOC(=O)OCN1C(=O)CCc2ccc(OCCCCN3CCN(c4cccc(Cl)c4Cl)CC3)cc21 [Compound 79, (7-(4-(4-(2,3-dichlorophenyl)piperazin-1-yl)butoxy)-2-oxo-3,4-dihydroquinolin-1(2H)-yl)methyl ethyl carbonate] | 907.4 | 940 | AUC0-14 [1, 6]: 954 ng·days/mL
CNC(=O)OCN1C(=O)CCc2ccc(OCCCCN3CCN(c4cccc(Cl)c4Cl)CC3)cc21 [Compound 47, (7-(4-(4-(2,3-dichlorophenyl)piperazin-1-yl)butoxy)-2-oxo-3,4-dihydroquinolin-1(2H)-yl)methyl methylcarbamate] | 113 | 176 | inhibition of increase in total distance traveled caused by D-AMPH [2, 5]: did appear to significantly inhibit increases in distance traveled caused by D-AMPH
CCCCCCCCCC(=O)OCN1C(=O)CCc2ccc(OCCCCN3CCN(c4cccc(Cl)c4Cl)CC3)cc21 [Compound 6, (7-(4-(4-(2,3-dichlorophenyl)piperazin-1-yl)butoxy)-2-oxo-3,4-dihydroquinolin-1(2H)-yl)methyl decanoate] | 1490.3 | 1678.1 | AUC0-14 [1, 6]: 67 ng·days/mL; AUC0-T [1, 6]: 327 ng·days/mL
O=C(OCN1C(=O)CCc2ccc(OCCCCN3CCN(c4cccc(Cl)c4Cl)CC3)cc21)C1CCC1 [Compound 34, (7-(4-(4-(2,3-dichlorophenyl)piperazin-1-yl)butoxy)-2-oxo-3,4-dihydroquinolin-1(2H)-yl)methyl cyclobutanecarboxylate] | 2050 | 2095.8 | –
CC(C)CCOC(=O)OCN1C(=O)CCc2ccc(OCCCCN3CCN(c4cccc(Cl)c4Cl)CC3)cc21 [Compound 85, (7-(4-(4-(2,3-dichlorophenyl)piperazin-1-yl)butoxy)-2-oxo-3,4-dihydroquinolin-1(2H)-yl)methyl isopentyl carbonate] | 1233.9 | 1348 | –
CCCC(=O)OCN1C(=O)SC(Cc2ccc(OCCc3ccc(CC)cn3)cc2)C1=O (stereo not shown) [Compound 1002, (5-(4-(2-(5-ethylpyridin-2-yl)ethoxy)benzyl)-2,4-dioxothiazolidin-3-yl)methyl butyrate] | – | – | AUC0-14 [3]: 5350 ng·days/mL; AUC0-T [3]: 5972 ng·days/mL
CCCCCCCCCCOC(=O)OCN1C(=O)CCc2ccc(OCCCCN3CCN(c4cccc(Cl)c4Cl)CC3)cc21 [Compound 82, decyl (7-(4-(4-(2,3-dichlorophenyl)piperazin-1-yl)butoxy)-2-oxo-3,4-dihydroquinolin-1(2H)-yl)methyl carbonate] | – | – | AUC0-14 [1, 6]: 204 ng·days/mL
O=C(OCN1C(=O)CCc2ccc(OCCCCN3CCN(c4cccc(Cl)c4Cl)CC3)cc21)c1ccccc1 [Compound 31, (7-(4-(4-(2,3-dichlorophenyl)piperazin-1-yl)butoxy)-2-oxo-3,4-dihydroquinolin-1(2H)-yl)methyl benzoate] | 819.0 | 997 | –
